Literature values as cited in patent US8470822B2, “Folate mimetics and folate-receptor binding conjugates thereof” (Purdue Research Foundation, priority 2001, dated 2013).

Tested on: high-affinity folate receptor
Details: 2 μM pteroic acid (100-fold excess); cited from earlier work

Nc1nc2ncc(CNc3ccc(C(=O)O)cc3)nc2c(=O)[nH]1 [pteroic acid]
effect on the binding of folate to the folate receptor: absolutely no effect
